This passage reports IC50 results from patent publication US8076338B2, “Kinase modulators and methods of use” (Exelixis, Inc., priority 2004, dated 2011).

What is called IC50 is the point on the concentration scale where inhibition reaches its midpoint.

One assay has as its target p70S6K (Homo sapiens, UniProt P23443). In words: Luciferase-coupled chemiluminescence kinase assay (ATP consumption). Format: biochemical. A digest of the protocol: (§1)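 Activity is read as ATP depletion: luciferase-luciferin reagent added after a 3 h ambient-temperature kinase reaction, with total ATP use limited to 25-60%. Before ATP addition, 2.5-5 nM kinase and compound were preincubated 30 min in Tris pH 7.5/MgCl2/TX-100/DTT buffer; […].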

The target of the next assay is AktK (Homo sapiens, UniProt P31749). Described as above. As to conditions: read-out: AKT-1 IC50. The class given is biochemical. The procedure, abridged:
as §1

Like-named read-outs stand apart in the source and are kept apart here. Some results are limits rather than exact numbers.

p70S6K, sequence (P23443 whole entry): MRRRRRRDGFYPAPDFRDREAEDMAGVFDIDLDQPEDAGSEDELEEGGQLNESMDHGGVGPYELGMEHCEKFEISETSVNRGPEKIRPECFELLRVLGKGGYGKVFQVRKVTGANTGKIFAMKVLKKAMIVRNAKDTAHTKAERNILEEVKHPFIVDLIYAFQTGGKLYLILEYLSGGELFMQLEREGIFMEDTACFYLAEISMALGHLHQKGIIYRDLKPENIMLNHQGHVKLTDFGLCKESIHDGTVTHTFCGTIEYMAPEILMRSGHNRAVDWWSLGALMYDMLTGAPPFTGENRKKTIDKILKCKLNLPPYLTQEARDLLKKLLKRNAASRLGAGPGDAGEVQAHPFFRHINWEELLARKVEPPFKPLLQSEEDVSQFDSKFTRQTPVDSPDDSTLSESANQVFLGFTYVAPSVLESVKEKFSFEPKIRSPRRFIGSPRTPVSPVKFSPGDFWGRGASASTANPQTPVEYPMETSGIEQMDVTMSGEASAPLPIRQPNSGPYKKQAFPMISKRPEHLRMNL
AktK, sequence (P31749 whole entry): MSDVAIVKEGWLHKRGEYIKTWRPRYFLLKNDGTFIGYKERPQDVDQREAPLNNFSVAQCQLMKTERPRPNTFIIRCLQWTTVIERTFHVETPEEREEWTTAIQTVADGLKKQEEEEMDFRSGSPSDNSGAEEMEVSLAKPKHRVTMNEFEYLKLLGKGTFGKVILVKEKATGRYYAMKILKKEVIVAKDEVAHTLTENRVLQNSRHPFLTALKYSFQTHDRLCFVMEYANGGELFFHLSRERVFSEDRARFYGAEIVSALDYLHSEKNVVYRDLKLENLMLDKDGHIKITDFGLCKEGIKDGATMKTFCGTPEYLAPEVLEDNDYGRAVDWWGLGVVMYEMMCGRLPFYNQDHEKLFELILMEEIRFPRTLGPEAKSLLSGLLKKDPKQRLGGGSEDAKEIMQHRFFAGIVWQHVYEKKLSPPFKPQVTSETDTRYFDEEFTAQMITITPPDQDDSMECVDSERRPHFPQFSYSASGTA

Take `Cc1cccc(C)c1N1CCN(c2ncnc3[nH]nc(Br)c23)CC1` [Entry 103, 3-bromo-4-[4-(2,6-dimethylphenyl)piperazin-1-yl]-1H-pyrazolo[3,4-d]pyrimidine]: the IC50 was 100 to 1000 nM on p70S6K (Table 1, class symbols per key) and no less than 10000 nM on AktK (Table 1, class symbols per key).
On to `Cc1c(NCCN2CCCC2)cc(CC[Si](C)(C)C)cc1N1CCN(c2ncnc3[nH]nc(Br)c23)CC1` [Entry 246, 3-[4-(3-bromo-1H-pyrazolo[3,4-d]pyrimidin-4-yl)piperazin-1-yl]-2-methyl-N-(2-pyrrolidin-1-ylethyl)-5-[2-(trimethylsilyl)ethyl]aniline], for which the IC50 against p70S6K (Table 1, class symbols per key) was less than 100 nM; at AktK (Table 1, class symbols per key), less than 100 nM.
As for `CCOCc1cc(NCCN2CCCC2)c(C)c(N2CCN(c3ncnc4[nH]nc(Br)c34)CC2)c1` [Entry 272, 3-[4-(3-bromo-1H-pyrazolo[3,4-d]pyrimidin-4-yl)piperazin-1-yl]-5-[(ethyloxy)methyl]-2-methyl-N-(2-pyrrolidin-1-ylethyl)aniline], the IC50 against p70S6K (Table 1, class symbols per key) was less than 100 nM; at AktK (Table 1, class symbols per key), less than 100 nM.
Regarding `COc1ccccc1N1CCN(c2ncnc3[nH]nc(Br)c23)CC1` [Entry 66, 3-bromo-4-{4-[2-(methyloxy)phenyl]piperazin-1-yl}-1H-pyrazolo[3,4-d]pyrimidine], the IC50 on p70S6K (Table 1, class symbols per key) is less than 100 nM; on AktK (Table 1, class symbols per key), no less than 10000 nM.
Regarding `COc1ccc(N2CCN(c3ncnc4[nH]ccc34)CC2)cc1` [Entry 304, 4-{4-[4-(methyloxy)phenyl]piperazin-1-yl}-7H-pyrrolo[2,3-d]pyrimidine], the IC50 against p70S6K is 1000 to 10000 nM; on AktK, no less than 10000 nM.
With `Cc1c(Br)cc(OCC(F)(CF)CF)cc1N1CCN(c2ncnc3[nH]nc(Br)c23)CC1` [Entry 250, 3-bromo-4-[4-(3-bromo-5-{[2,3-difluoro-2-(fluoromethyl)propyl]oxy}-2-methylphenyl)pipera-zin-1-yl]-1H-pyrazolo[3,4-d]pyrimidine], the IC50 at p70S6K (Table 1, class symbols per key) was less than 100 nM; on AktK (Table 1, class symbols per key) it was 100 to 1000 nM.
As for `Clc1ccccc1N1CCN(c2ncnc3[nH]cnc23)CC1` [Entry 299, 6-[4-(2-chlorophenyl)piperazin-1-yl]-9H-purine], the IC50 on p70S6K was 1000 to 10000 nM; on AktK, no less than 10000 nM.
Consider `N#Cc1ccccc1N1CCN(c2ncnc3[nH]nc(Br)c23)CC1` [Entry 122, 2-[4-(3-bromo-1H-pyrazolo[3,4-d]pyrimidin-4-yl)piperazin-1-yl]benzonitrile], for which the IC50 against p70S6K (Table 1, class symbols per key) is 100 to 1000 nM; on AktK (Table 1, class symbols per key), no less than 10000 nM.
As to `Cc1ccc(Cl)cc1N1CCN(c2ncnc3[nH]nc(C)c23)CC1` [Entry 321, 4-[4-(5-chloro-2-methylphenyl)piperazin-1-yl]-3-methyl-1H-pyrazolo[3,4-d]pyrimidine], the IC50 at p70S6K was less than 100 nM; on AktK it was 1000 to 10000 nM.
Regarding `Cc1nc(-c2cc(NCCN3CCCC3)c(C)c(N3CCN(c4ncnc5[nH]nc(Br)c45)CC3)c2)no1` [Entry 259, 3-[4-(3-bromo-1H-pyrazolo[3,4-d]pyrimidin-4-yl)piperazin-1-yl]-2-methyl-5-(5-methyl-1,2,4-oxadiazol-3-yl)-N-(2-pyrrolidin-1-ylethyl)aniline], the IC50 is less than 100 nM on p70S6K (Table 1, class symbols per key) and less than 100 nM at AktK (Table 1, class symbols per key).
For `Cc1ccc(Cl)cc1N1CCN(c2ncnc3[nH]nc(/C=C4/C[C@H]5CNC[C@H]5C4)c23)CC1` [Entry 396, 4-[4-(5-chloro-2-methylphenyl)piperazin-1-yl]-3-[(E)-(3aR,6aS)-hexahydrocyclopenta[c]pyrrol-5(1H)-ylidenemethyl]-1H-pyrazolo[3,4-d]pyrimidine], the IC50 against p70S6K and at AktK was 1000 to 10000 nM each time.
As to `Cc1cccc(N2CCN(c3ncnc4[nH]nc(Br)c34)CC2C)c1` (stereo not shown) [Entry 158, 3-bromo-4-[3-methyl-4-(3-methylphenyl)piperazin-1-yl]-1H-pyrazolo[3,4-d]pyrimidine], the IC50 is less than 100 nM on p70S6K (Table 1, class symbols per key) and 1000 to 10000 nM on AktK (Table 1, class symbols per key).
As to `Cc1ccc(Cl)cc1N1CCN(c2ncnc3[nH]nc(C4=CCNCC4)c23)CC1` [Entry 401, 4-[4-(5-chloro-2-methylphenyl)piperazin-1-yl]-3-(1,2,3,6-tetrahydropyridin-4-yl)-1H-pyrazolo[3,4-d]pyrimidine], the IC50 at p70S6K was less than 100 nM; at AktK it was 1000 to 10000 nM.
The like results for `CCc1n[nH]c2ncnc(N3CCN(c4cccc(Cl)c4)C(C(=O)NC)C3)c12` (stereo not shown) [Entry 353, 1-(3-chlorophenyl)-4-(3-ethyl-1H-pyrazolo[3,4-d]pyrimidin-4-yl)-N-methylpiperazine-2-carboxamide] were, in that order, 100 to 1000 nM and 1000 to 10000 nM.
For `Cc1ccc(OCC(F)(CF)CF)cc1N1CCN(c2ncnc3[nH]nc(Br)c23)CC1` [Entry 263, 3-bromo-4-[4-(5-{[2,3-difluoro-2-(fluorometh-yl)propyl]oxy}-2-methylphenyl)piperazin-1-yl]-1H-pyrazolo[3,4-d]pyrimidine], the IC50 on p70S6K (Table 1, class symbols per key) was less than 100 nM; at AktK (Table 1, class symbols per key), less than 100 nM.
For the molecule `CNC(=O)c1ccc(C)c(N2CCN(c3ncnc4[nH]nc(Br)c34)CC2)c1` [Entry 188, 3-[4-(3-bromo-1H-pyrazolo[3,4-d]pyrimidin-4-yl)piperazin-1-yl]-N,4-dimethylbenzamide], the IC50 was less than 100 nM against p70S6K (Table 1, class symbols per key) and 100 to 1000 nM on AktK (Table 1, class symbols per key).
Regarding `CCN(CC)CCCOc1cc(Cl)cc(N2CCN(c3ncnc4[nH]nc(C(F)(F)F)c34)CC2)c1C` [Entry 56, 3-[(5-chloro-2-methyl-3-{4-[3-(trifluoromethyl)-1H-pyrazolo[3,4-d]pyrimidin-4-yl]piperazin-1-yl}phenyl)oxy]-N,N-diethylpropan-1-amine], the IC50 against p70S6K (Table 1, class symbols per key) was less than 100 nM; on AktK (Table 1, class symbols per key) it was 100 to 1000 nM.
The like results for `CCN(CC)CCCOc1nc(Cl)c(C)c(N2CCN(c3ncnc4[nH]nc(Br)c34)CC2)n1` [Entry 173, 3-({4-[4-(3-bromo-1H-pyrazolo[3,4-d]pyrimidin-4-yl)piperazin-1-yl]-6-chloro-5-methylpyrimidin-2-yl}oxy)-N,N-diethylpropan-1-amine] were, in that order, 100 to 1000 nM and 1000 to 10000 nM.
Consider `Cc1c(NCCN2CCCC2)cc(C(=O)NC(C)C)cc1N1CCN(c2ncnc3[nH]nc(Br)c23)CC1` [Entry 209, 3-[4-(3-bromo-1H-pyrazolo[3,4-d]pyrimidin-4-yl)piperazin-1-yl]-4-methyl-N-(1-methylethyl)-5-[(2-pyrrolidin-1-ylethyl)amino]benzamide], for which the half-maximal inhibitory concentration (IC50) is less than 100 nM against p70S6K (Table 1, class symbols per key) and less than 100 nM at AktK (Table 1, class symbols per key).
Turning to `CCc1n[nH]c2ncnc(N3CCN(c4cc(Cl)cc(OC)c4)CC3)c12` [Entry 113, 4-{4-[3-chloro-5-(methyloxy)phenyl]piperazin-1-yl}-3-ethyl-1H-pyrazolo[3,4-d]pyrimidine], the IC50 at p70S6K (Table 1, class symbols per key) was less than 100 nM; at AktK (Table 1, class symbols per key) it was no less than 10000 nM.
In the case of `Cc1ccccc1N1CCN(c2ncnc3[nH]cnc23)CC1` [Entry 315, 6-[4-(2-methylphenyl)piperazin-1-yl]-9H-purine], the values for the IC50 against p70S6K and at AktK were 100 to 1000 nM and no less than 10000 nM, respectively.
On to `Cc1c(OCCCN2CCCC2)cc(Cl)cc1N1CCN(c2ncnc3[nH]nc(Br)c23)CC1` [Entry 84, 3-bromo-4-(4-{5-chloro-2-methyl-3-[(3-pyrrolidin-1-ylpropyl)oxy]phenyl}piperazin-1-yl)-1H-pyrazolo[3,4-d]pyrimidine], for which the IC50 against p70S6K (Table 1, class symbols per key) is less than 100 nM; on AktK (Table 1, class symbols per key), less than 100 nM.
Take `Cc1c(NCCN2CCCC2)cc(F)cc1N1CCN(c2ncnc3[nH]nc(Br)c23)CC1` [Entry 58, 3-[4-(3-bromo-1H-pyrazolo[3,4-d]pyrimidin-4-yl)piperazin-1-yl]-5-fluoro-2-methyl-N-(2-pyrrolidin-1-ylethyl)aniline]: the IC50 was less than 100 nM against p70S6K (Table 1, class symbols per key) and 100 to 1000 nM on AktK (Table 1, class symbols per key).
Turning to `Cc1ccc(Cl)cc1N1CCN(c2ncnc3[nH]nc(-c4cccs4)c23)CC1` [Entry 338, 4-[4-(5-chloro-2-methylphenyl)piperazin-1-yl]-3-(2-thienyl)-1H-pyrazolo[3,4-d]pyrimidine], the IC50 was less than 100 nM at p70S6K and 1000 to 10000 nM at AktK.
For the molecule `Cc1c(NCCN2CCCC2)cc(C(=O)Nc2ccc(Cl)cc2)cc1N1CCN(c2ncnc3[nH]nc(Br)c23)CC1` [Entry 203, 3-[4-(3-bromo-1H-pyrazolo[3,4-d]pyrimidin-4-yl)piperazin-1-yl]-N-(4-chlorophenyl)-4-methyl-5-[(2-pyrrolidin-1-ylethyl)amino]benzamide], the IC50 against p70S6K (Table 1, class symbols per key) was less than 100 nM; at AktK (Table 1, class symbols per key) it was less than 100 nM.
With `Cc1c(NCCN2CCCC2)cc(C(=O)C2CC2)cc1N1CCN(c2ncnc3[nH]nc(Br)c23)CC1` [Entry 275, {3-[4-(3-bromo-1H-pyrazolo[3,4-d]pyrimidin-4-yl)piperazin-1-yl]-4-methyl-5-[(2-pyrrolidin-1-ylethyl)amino]phenyl}(cyclopropyl)methanone], the IC50 is less than 100 nM against p70S6K (Table 1, class symbols per key) and less than 100 nM at AktK (Table 1, class symbols per key).
For `CCc1n[nH]c2ncnc(N3CCN(c4cc(Cl)cc(OCCN(C)C)c4OC)CC3)c12` [Entry 384, 2-{[5-chloro-3-[4-(3-ethyl-1H-pyrazolo[3,4-d]pyrimidin-4-yl)piperazin-1-yl]-2-(methyloxy)phenyl]oxy}-N,N-dimethylethanamine], the IC50 on p70S6K was less than 100 nM; on AktK, 1000 to 10000 nM.
Turning to `CCc1n[nH]c2ncnc(N3CCN(c4cc(OCC(C)C)cc(NCCN5CCCC5)c4C)CC3)c12` [Entry 172, 3-[4-(3-ethyl-1H-pyrazolo[3,4-d]pyrimidin-4-yl)piperazin-1-yl]-2-methyl-5-[(2-methyl-propyl)oxy]-N-(2-pyrrolidin-1-ylethyl)aniline], the IC50 on p70S6K (Table 1, class symbols per key) is less than 100 nM; at AktK (Table 1, class symbols per key), less than 100 nM.
In the case of `CCN(CC)CCOc1cc(Cl)cc(N2CCN(c3ncnc4[nH]nc(C(F)(F)F)c34)CC2)c1C` [Entry 34, 2-[(5-chloro-2-methyl-3-{4-[3-(trifluoromethyl)-1H-pyrazolo[3,4-d]pyrimidin-4-yl]piperazin-1-yl}phenyl)oxy]-N,N-diethylethanamine], the half-maximal inhibitory concentration (IC50) against p70S6K (Table 1, class symbols per key) is less than 100 nM; on AktK (Table 1, class symbols per key), 100 to 1000 nM.
